Columns and labels:
[1] = mn = molality of the nth substance listed, in mol/kg; conditions: 100 kPa, Liquid; for speed of sound: Frequency=3 MHz, Sing-around technique in a fixed-path interferometer; for mass density: Vibrating tube method
[2] = 100 kPa, Liquid; for speed of sound: Frequency=3 MHz, Sing-around technique in a fixed-path interferometer; for mass density: Vibrating tube method

CC1(C)S[C@@H]2[C@H](NC(=O)[C@H](N)c3ccc(O)cc3)C(=O)N2[C@H]1C(=O)O [amoxicillin] + O
[1]
Conditions | mass density, 305.15 K [kg/m3] | mass density, 310.15 K [kg/m3] | mass density, 315.15 K [kg/m3] | speed of sound, 305.15 K [m/s] | speed of sound, 310.15 K [m/s] | speed of sound, 315.15 K [m/s]
m1 = 0.0005 | 995.743 | 994.045 | 992.153 | 1514.7 | 1524.6 | 1532.9
m1 = 0.002 | 995.924 | 994.23 | 992.334 | 1515 | 1524.8 | 1533.2
m1 = 0.0035 | 996.115 | 994.412 | 992.522 | 1514.4 | 1524.3 | 1532.5

CC(C)C[C@H](NC(=O)CN)C(=O)O [glycyl-L-leucine] + O
[1]
Conditions | mass density, 305.15 K [kg/m3] | mass density, 310.15 K [kg/m3] | mass density, 315.15 K [kg/m3] | speed of sound, 305.15 K [m/s] | speed of sound, 310.15 K [m/s] | speed of sound, 315.15 K [m/s]
m1 = 0.00196 | 995.189 | 993.501 | 991.607 | 1514 | 1523.9 | 1532.4
m1 = 0.00595 | 995.39 | 993.701 | 991.806 | 1514.8 | 1524.6 | 1533
m1 = 0.00811 | 995.498 | 993.809 | 991.913 | 1515 | 1524.9 | 1533.1
m1 = 0.01008 | 995.597 | 993.908 | 992.01 | 1515.2 | 1525.2 | 1533.3
m1 = 0.02014 | 996.102 | 994.41 | 992.508 | 1516.4 | 1526.2 | 1534.5
m1 = 0.05085 | 997.635 | 995.935 | 994.019 | 1521.5 | 1531.4 | 1539.2
m1 = 0.1002 | 1000.07 | 998.358 | 996.42 | 1528.8 | 1538.2 | 1545.9
m1 = 0.1991 | 1004.86 | 1003.12 | 1001.14 | 1540.2 | 1548.9 | 1555.8
m1 = 0.299 | 1009.55 | 1007.79 | 1005.77 | 1552 | 1560 | 1566.6

O [water]
[2]
Conditions | mass density [kg/m3] | speed of sound [m/s]
305.15 K | 995.09 | 1513.5
310.15 K | 993.403 | 1523.5
315.15 K | 991.51 | 1532.2

From the NIST ThermoML archive (doi:10.1016/j.tca.2014.07.025)
